Like-named read-outs stand apart in the source and are kept apart here.

Data on two compounds can be found in US20150299233A1, “COMPOSITIONS AND METHODS COMPRISING RHENIUM FOR THE TREATMENT OF CANCERS” (Massachusetts Institute of Technology, priority 2014, published 2015).

For data set [1], the system named is cisplatin-sensitive cells (A2780). In words: MTT cytotoxicity assay, A2780 cells. Type of data set: cell-based, human. (Formazan colour is commonly taken as a measure of viable cells.)
A short description of data set [2]: Variable-temperature 1H NMR stability in DMSO. Type of data set: physicochemical. The following applies: intact up to 75° C. The protocol: Two rhenium(v) oxo complexes (1 and 2; see Scheme 1) were prepared by reacting ReOCI3)2 with […] of the corresponding bidentate ligand in methanol. The complexes were isolated in reasonable yields as pale green solids and fully characterized by NMR and IR spectroscopy, ESI-MS spectrometry, and elemental analysis.
Synthesis and Characterization. The rhenium(V) oxo complexes 1 and 2 (see Scheme 1) were prepared by the reaction of [ReOCl3(PPh3)2] with 1.5 equiv of the corresponding bidentate ligand in methanol (Scheme 1). The complexes were isolated in reasonable yields as pale green solids and fully characterized by NMR and IR spectroscopy and ESI mass spectrometry. The purity of the complexes was confirmed by elemental analysis.

Data set [3] deals with A549 cells. In words: Intracellular ROS assay (DCFH-DA, flow cytometry). In kind it is cell-based, human. The conditions noted are these: for induced ROS production in the presence of necrostatin-1: 20 μM for 12 h with necrostatin-1 60 μM; for intracellular ROS versus untreated control cells: 1, 2, shikonin 20 μM for 12 h, H2O2 1 mM for 1 h. The protocol: Characterization of Necroptotic Features. Having established that necrosome formation is a determinant of 1 and 2 activity, additional studies were performed to understand the cascade of events leading from necrosome formation to cell death. Necrosomes generate abnormally high levels of mitochondrial ROS, leading to ATP depletion and eventual degradation of the mitochondrial membrane potential. With this fact in mind, intracellular ROS production was quantified by flow cytometry using 6-carboxy-2′,7′-dichlorodihydrofluorescein diacetate (DCFH-DA), a well-established ROS indicator.
In FIG. 2: (A) Representative histograms displaying the green fluorescence emitted by DCFH-DA-stained A549 cells (i) and A549 cells treated with 1(20 μM for 12 h) (iii) or 1 (20 μM for 12 h) with nectrostatin-1 (60 μM for 12 h) (ii). (B) Representative histograms displaying the green fluorescence emitted by DCFH-DA-stained A549 cells (i) and A549 cells treated with 2 (20 μM for 12 h) (iii) or 2 (20 μM for 12 h) with nectrostatin-1 (60 μM for 12 h) (ii). (C) Representative histograms displaying the green fluorescence emitted by DCFH-DA-stained A549 cells (i) and A549 cells treated withH2O2 (1mM for 1 h) (iii). (D) Representative histograms displaying the green fluorescence emitted by DCFH-DA-stained A549 cells (i) and A549 cells treated with shikonin (20 μM for 12 h) (iii).
Intracellular ROS Assay. Untreated and treated A549 cells (1.5×10^6 cells/well) grown in six-well plates were incubated with 6-carboxy-2′,7′-dichlorodihydrofluorescein diacetate (20 μM) for 30 min. The cells were then washed with PBS (1 mL x 3), harvested, and analyzed by using a FACSCalibur-HTS flow cytometer (BD Biosciences) (20 000 events per sample were acquired). The FL1 channel was used to assess intracellular ROS levels. Cell populations were analyzed using the FlowJo software (Tree Star).
For orientation: In flow cytometry, cells or beads pass a laser one at a time.

Data set [4] concerns MCF-7 (breast adenocarcinoma). In words: MTT cytotoxicity assay, MCF-7 cells. Type of data set: cell-based, human. The following applies: Table 2; cisplatin-resistant cell line; 72 h exposure.
The subject of data set [5] is A549 cells. In words: Propidium iodide uptake, flow cytometry. Type of data set: cell-based, human. The following applies: for PI uptake versus untreated control cells: 20 μM for 12 h; for effect of N-acetylcysteine pretreatment on induced PI uptake: N-acetylcysteine 3 mM for 1 h; for effect of necrostatin-1 on mediated PI uptake: necrostatin-1 60 μM. The method, then:
Intracellular ROS production and mitochondrial membrane depletion contribute to necroptosis. Cells undergoing necroptosis display necrosis-like morphological features such as loss of cell membrane integrity, increase in organelle and cell volume (oncosis), and intact nuclear membrane. To further test whether 1- and 2-treatment can trigger necroptosis, Hoechst 33258/propidium iodide (PI) double staining was carried out to determine nuclear membrane morphology and integrity. Hoechst 33258 is a DNA minor groove binder that is routinely used to visualize the nucleus without the need for cell permeabilization. When used without cell permeabilization agents, PI stains the nuclei of necrotic cells. Early-stage apoptotic and normal cells maintain cell membrane integrity and thus are not stained by PI. A549 cells were treated with 1 and 2 (20 μM for 12 h), incubated with Hoechst 33258 and PI, and imaged using a fluorescence microscope.
Propidium Iodide Uptake. Untreated and treated A549 cells (1.5×10^6 cells/well) grown in six-well plates were washed with PBS (1 mL×3), harvested, incubated with PI (5 μM), and analyzed by using the FACSCalibur-HTS flow cytometer (BD Biosciences) (20 000 events per sample were acquired). The FL2 channel was used to assess intracellular PI uptake. Cell populations were analyzed using the FlowJo software (Tree Star).

Where [6] appears, read: Table 1, 72 h exposure, ± standard deviation, read-out: IC50 A2780 ovarian carcinoma.
The mark [7] stands for this setting: Table A, average of three independent determinations, read-out: IC50 A2780 (ovarian).

Usually IC50 stands for the concentration that gives 50% inhibition. Turning to `C[O][Re-2]1(=[O])([Cl])([Cl])[n+]2cc(C)c(C)c3ccc4c(C)c(C)c[n+]1c4c32` [Compound 2, [ReO(OMe)(3,4,7,8-tetramethyl-1,10-phenanthroline)Cl2]], the IC50 in data set [1] (setting [6]) was determined as 150 ± 10 nM. For the same compound, in data set [1] (setting [7]), the IC50 came out at 150 ± 10 nM. Besides, the “stability in DMSO” value in data set [2] is “stable”. In addition, in the data set with A549 cells [3], the “induced ROS production in the presence of necrostatin-1” value is “attenuated” and the “intracellular ROS versus untreated control cells” value is on record as “markedly higher levels of ROS”. The compound further came in with an IC50 in data set [4] of 805 ± 21 nM. Also, in the data set with A549 cells [5], the “PI uptake versus untreated control cells” value was “higher PI uptake”, the “effect of N-acetylcysteine pretreatment on induced PI uptake” value is on record as “significantly decreased” and the “effect of necrostatin-1 on mediated PI uptake” value is “could block”.
On to `C[O][Re](=[O])([Cl])[Cl].c1ccc(-c2ccnc3c2ccc2c(-c4ccccc4)ccnc23)cc1` [Compound 1, [ReO(OMe)(4,7-diphenyl-1,10-phenanthroline)-Cl2]], for which the IC50 in data set [1] (setting [6]) worked out at 670 ± 40 nM. In addition, in data set [1] (setting [7]), the IC50 is 670 ± 40 nM. For the same compound, the “stability in DMSO” value in data set [2] is recorded as “stable”. Also, in the data set on A549 cells [3], the “induced ROS production in the presence of necrostatin-1” value is reported as “attenuated” and the “intracellular ROS versus untreated control cells” value is on record as “markedly higher levels of ROS”. Also, in data set [4], the IC50 was 285 ± 35 nM. In addition, in the data set with A549 cells [5], the “PI uptake versus untreated control cells” value is on record as “higher PI uptake”, the “effect of N-acetylcysteine pretreatment on induced PI uptake” value is “significantly decreased” and the “effect of necrostatin-1 on mediated PI uptake” value was “could block”.
